{
  "source": "paper PMC9019041",
  "about": "“Structural insights into the peptide selectivity and activation of human neuromedin U receptors” (Nature Communications, 2022)",
  "origin": "cited, not measured here",
  "key": {"[1]": {"tested_on": "neuromedin U receptor 2 (NMUR2)", "conditions": "low selectivity; cited from earlier work", "text": "(§1) Human neuromedin U (NMU) is a 25-amino-acid endogenous peptide that was first discovered in extracts of the porcine spinal cord with a potent smooth muscle contractile activity. It is also involved in pleiotropic physiological functions, including the regulation of blood pressure, food uptake, nociception, pain perception, bone formation, and immunological responses. More recently, human neuromedin S (NMS), a 33-amino-acid endogenous peptide, was discovered, which shares an identical C-terminal heptapeptide with NMU. Unlike NMU, which is widely distributed in the central nervous system ( ..."}, "[2]": {"tested_on": "neuromedin U receptor 1 (NMUR1)", "conditions": "low selectivity; cited from earlier work", "text": "as §1"}},
  "note": "Where no end group is shown, it is not given here.",
  "data": [
    {"substance": "neuromedin S (ILQRGSGTAAVDFTKKDHTATWGRPFFLFRPRN-NH2) [NMS, Human 33-amino-acid endogenous neuropeptide sharing the C-terminal heptapeptide with NMU; agonist of NMUR1 and NMUR2 (GenScript)]", "values": [
      {"measurement": "affinity", "setting": "[1]", "result": "sub-nanomolar"},
      {"measurement": "affinity", "setting": "[2]", "result": "sub-nanomolar"}
    ]}
  ]
}
